Tests used:
Settings in all cases: Compound concentration 100.0 nM
[1] = system: Tyrosine-protein kinase ABL1 (Homo sapiens), P00519 [F317I]
[2] = molecular target: Atypical kinase COQ8A, mitochondrial (Homo sapiens) (UniProt Q8NI60)
[3] = molecular target: 5'-AMP-activated protein kinase catalytic subunit alpha-2 (Homo sapiens) (UniProt P54646)
[4] = molecular target: NUAK family SNF1-like kinase 1 (Homo sapiens) (UniProt O60285)
[5] = molecular target: Calcium/calmodulin-dependent protein kinase type 1D (Homo sapiens) (UniProt Q8IU85)
[6] = molecular target: Peripheral plasma membrane protein CASK (Homo sapiens) (UniProt O14936)
[7] = molecular target: Cyclin-dependent kinase 11A (Homo sapiens) (UniProt Q9UQ88)
[8] = molecular target: Cyclin-dependent kinase 5 (Homo sapiens) (UniProt Q00535)
[9] = molecular target: Dual specificity protein kinase CLK2 (Homo sapiens) (UniProt P49760)
[10] = molecular target: Dual specificity protein kinase CLK3 (Homo sapiens) (UniProt P49761)
[11] = molecular target: Casein kinase I isoform gamma-3 (Homo sapiens) (UniProt Q9Y6M4)
[12] = molecular target: Serine/threonine-protein kinase DCLK1 (Homo sapiens) (UniProt O15075)
[13] = system: Epidermal growth factor receptor (Homo sapiens), P00533 [UNDEFINED MUTATION]
[14] = system: Epidermal growth factor receptor (Homo sapiens), P00533 [L858R]
[15] = system: Epidermal growth factor receptor (Homo sapiens), P00533 [L861Q]
[16] = molecular target: Eukaryotic translation initiation factor 2-alpha kinase 1 (Homo sapiens) (UniProt Q9BQI3)
[17] = molecular target: Ephrin type-A receptor 1 (Homo sapiens) (UniProt P21709)
[18] = molecular target: Ephrin type-B receptor 1 (Homo sapiens) (UniProt P54762)
[19] = molecular target: Receptor tyrosine-protein kinase erbB-2 (Homo sapiens) (UniProt P04626)
[20] = molecular target: Mitogen-activated protein kinase 3 (Homo sapiens) (UniProt P27361)
[21] = system: Fibroblast growth factor receptor 3 (Homo sapiens), P22607 [G697C]
[22] = molecular target: Tyrosine-protein kinase HCK (Homo sapiens) (UniProt P08631)
[23] = molecular target: Inhibitor of nuclear factor kappa-B kinase subunit beta (Homo sapiens) (UniProt O14920)
[24] = molecular target: Tyrosine-protein kinase JAK2 (Homo sapiens) (UniProt O60674)
[25] = system: Mast/stem cell growth factor receptor Kit (Homo sapiens), P10721 [L576P]
[26] = molecular target: Serine/threonine-protein kinase LATS1 (Homo sapiens) (UniProt O95835)
[27] = molecular target: Serine/threonine-protein kinase MAK (Homo sapiens) (UniProt P20794)
[28] = molecular target: Mitogen-activated protein kinase kinase kinase 1 (Homo sapiens) (UniProt Q13233)
[29] = molecular target: Mitogen-activated protein kinase kinase kinase 11 (Homo sapiens) (UniProt Q16584)
[30] = molecular target: Serine/threonine-protein kinase MRCK alpha (Homo sapiens) (UniProt Q5VT25)
[31] = molecular target: Serine/threonine-protein kinase Nek1 (Homo sapiens) (UniProt Q96PY6)
[32] = molecular target: Serine/threonine-protein kinase Nek11 (Homo sapiens) (UniProt Q8NG66)
[33] = molecular target: Serine/threonine-protein kinase Nek5 (Homo sapiens) (UniProt Q6P3R8)
[34] = molecular target: Serine/threonine-protein kinase PAK 1 (Homo sapiens) (UniProt Q13153)
[35] = molecular target: Phosphatidylinositol 4,5-bisphosphate 3-kinase catalytic subunit beta isoform (Homo sapiens) (UniProt P42338)
[36] = molecular target: Protein kinase C eta type (Homo sapiens) (UniProt P24723)
[37] = molecular target: cGMP-dependent protein kinase 2 (Homo sapiens) (UniProt Q13237)
[38] = molecular target: RAF proto-oncogene serine/threonine-protein kinase (Homo sapiens) (UniProt P04049)
[39] = molecular target: Serine/threonine-protein kinase RIO1 (Homo sapiens) (UniProt Q9BRS2)
[40] = molecular target: Proto-oncogene tyrosine-protein kinase ROS (Homo sapiens) (UniProt P08922)
[41] = molecular target: Ribosomal protein S6 kinase alpha-2 (Homo sapiens) (UniProt Q15349)
[42] = molecular target: Serine/threonine-protein kinase SIK1 (Homo sapiens) (UniProt P57059)
[43] = molecular target: Serine/threonine-protein kinase 33 (Homo sapiens) (UniProt Q9BYT3)
[44] = molecular target: Serine/threonine-protein kinase TAO2 (Homo sapiens) (UniProt Q9UL54)
[45] = molecular target: Serine/threonine-protein kinase ULK2 (Homo sapiens) (UniProt Q8IYT8)

Measured: residual activity

Serine/threonine-protein kinase RIO1 (Homo sapiens), sequence (Q9BRS2 whole entry): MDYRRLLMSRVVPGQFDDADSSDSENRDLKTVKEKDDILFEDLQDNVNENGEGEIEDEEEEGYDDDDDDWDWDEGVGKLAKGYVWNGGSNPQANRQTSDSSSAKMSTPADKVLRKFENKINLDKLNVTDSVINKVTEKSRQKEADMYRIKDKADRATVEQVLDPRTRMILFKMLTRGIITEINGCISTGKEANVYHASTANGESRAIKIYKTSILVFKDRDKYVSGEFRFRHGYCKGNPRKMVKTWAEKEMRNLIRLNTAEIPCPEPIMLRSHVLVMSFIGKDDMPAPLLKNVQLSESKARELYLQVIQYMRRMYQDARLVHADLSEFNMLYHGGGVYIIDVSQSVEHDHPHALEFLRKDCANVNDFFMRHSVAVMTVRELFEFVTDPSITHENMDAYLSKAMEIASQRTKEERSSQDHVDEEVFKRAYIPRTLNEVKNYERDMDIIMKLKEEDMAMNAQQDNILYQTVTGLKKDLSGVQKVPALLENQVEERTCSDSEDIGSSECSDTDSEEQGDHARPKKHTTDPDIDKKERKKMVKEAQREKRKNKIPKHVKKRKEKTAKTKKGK
Serine/threonine-protein kinase Nek5 (Homo sapiens), sequence (Q6P3R8 whole entry): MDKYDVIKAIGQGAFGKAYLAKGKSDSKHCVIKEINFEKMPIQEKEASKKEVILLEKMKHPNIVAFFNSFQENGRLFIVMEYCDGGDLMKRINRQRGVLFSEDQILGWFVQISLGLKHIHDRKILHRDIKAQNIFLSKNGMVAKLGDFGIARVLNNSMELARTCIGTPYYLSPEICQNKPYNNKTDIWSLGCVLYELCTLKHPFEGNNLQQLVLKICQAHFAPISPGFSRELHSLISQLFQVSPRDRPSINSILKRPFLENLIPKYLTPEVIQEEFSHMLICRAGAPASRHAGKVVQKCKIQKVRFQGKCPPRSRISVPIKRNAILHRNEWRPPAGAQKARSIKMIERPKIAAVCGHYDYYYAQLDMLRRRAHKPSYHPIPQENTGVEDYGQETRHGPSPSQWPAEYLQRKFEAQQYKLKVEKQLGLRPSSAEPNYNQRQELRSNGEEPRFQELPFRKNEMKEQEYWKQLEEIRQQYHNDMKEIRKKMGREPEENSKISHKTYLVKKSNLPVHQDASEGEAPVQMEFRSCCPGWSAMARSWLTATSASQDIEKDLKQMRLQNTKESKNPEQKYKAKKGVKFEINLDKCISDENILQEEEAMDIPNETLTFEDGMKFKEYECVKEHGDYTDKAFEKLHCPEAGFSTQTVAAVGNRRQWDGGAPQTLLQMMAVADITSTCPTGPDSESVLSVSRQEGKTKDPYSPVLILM
Ribosomal protein S6 kinase alpha-2 (Homo sapiens), sequence (Q15349 whole entry): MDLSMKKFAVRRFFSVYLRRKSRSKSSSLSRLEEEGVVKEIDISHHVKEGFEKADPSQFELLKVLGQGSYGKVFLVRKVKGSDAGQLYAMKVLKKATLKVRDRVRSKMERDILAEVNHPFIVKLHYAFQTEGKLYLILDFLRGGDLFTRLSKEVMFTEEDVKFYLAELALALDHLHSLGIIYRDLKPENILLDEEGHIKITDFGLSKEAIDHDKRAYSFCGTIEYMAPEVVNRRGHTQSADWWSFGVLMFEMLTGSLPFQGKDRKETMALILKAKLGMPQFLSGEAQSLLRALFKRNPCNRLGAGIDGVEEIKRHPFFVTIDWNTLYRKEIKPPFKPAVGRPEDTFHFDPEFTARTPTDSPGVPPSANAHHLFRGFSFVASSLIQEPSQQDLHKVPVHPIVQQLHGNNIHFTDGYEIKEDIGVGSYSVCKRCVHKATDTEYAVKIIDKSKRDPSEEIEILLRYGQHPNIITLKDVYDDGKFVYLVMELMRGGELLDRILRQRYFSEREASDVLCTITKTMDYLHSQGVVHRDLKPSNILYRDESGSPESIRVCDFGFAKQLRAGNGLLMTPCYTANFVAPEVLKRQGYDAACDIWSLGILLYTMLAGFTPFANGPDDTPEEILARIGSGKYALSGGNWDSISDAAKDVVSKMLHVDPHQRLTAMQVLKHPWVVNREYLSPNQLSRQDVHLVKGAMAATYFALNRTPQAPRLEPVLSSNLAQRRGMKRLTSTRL
Atypical kinase COQ8A, mitochondrial (Homo sapiens), sequence (Q8NI60 163-647 limits assumed): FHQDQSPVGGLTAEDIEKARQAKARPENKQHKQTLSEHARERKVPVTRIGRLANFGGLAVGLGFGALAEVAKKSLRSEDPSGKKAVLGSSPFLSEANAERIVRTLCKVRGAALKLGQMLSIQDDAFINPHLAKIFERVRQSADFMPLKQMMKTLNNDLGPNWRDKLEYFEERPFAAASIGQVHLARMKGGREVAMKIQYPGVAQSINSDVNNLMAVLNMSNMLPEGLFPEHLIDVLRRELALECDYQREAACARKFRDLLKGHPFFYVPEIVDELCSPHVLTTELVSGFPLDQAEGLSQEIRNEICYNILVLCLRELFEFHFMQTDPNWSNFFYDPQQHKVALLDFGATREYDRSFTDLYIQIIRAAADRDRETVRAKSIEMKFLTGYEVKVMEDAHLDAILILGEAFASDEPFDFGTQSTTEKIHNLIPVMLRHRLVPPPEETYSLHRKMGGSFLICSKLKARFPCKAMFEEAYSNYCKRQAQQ
Serine/threonine-protein kinase Nek11 (Homo sapiens), sequence (Q8NG66 whole entry): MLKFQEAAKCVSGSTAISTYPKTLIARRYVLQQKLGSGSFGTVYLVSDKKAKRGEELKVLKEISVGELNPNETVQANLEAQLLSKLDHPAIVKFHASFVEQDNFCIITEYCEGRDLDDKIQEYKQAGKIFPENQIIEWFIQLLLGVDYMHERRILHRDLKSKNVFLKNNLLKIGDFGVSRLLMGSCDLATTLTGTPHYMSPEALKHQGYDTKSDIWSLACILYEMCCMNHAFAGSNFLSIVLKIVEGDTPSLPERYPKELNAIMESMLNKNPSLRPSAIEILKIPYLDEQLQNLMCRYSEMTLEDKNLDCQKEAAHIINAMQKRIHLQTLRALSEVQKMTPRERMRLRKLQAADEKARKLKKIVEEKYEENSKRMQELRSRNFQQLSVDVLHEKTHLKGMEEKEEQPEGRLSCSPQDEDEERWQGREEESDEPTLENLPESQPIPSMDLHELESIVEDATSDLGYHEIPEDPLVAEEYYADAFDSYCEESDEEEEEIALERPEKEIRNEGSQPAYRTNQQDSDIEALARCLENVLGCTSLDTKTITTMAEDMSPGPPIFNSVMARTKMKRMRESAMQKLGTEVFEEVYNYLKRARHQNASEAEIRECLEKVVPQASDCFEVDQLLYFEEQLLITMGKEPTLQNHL
Serine/threonine-protein kinase TAO2 (Homo sapiens), sequence (Q9UL54 whole entry): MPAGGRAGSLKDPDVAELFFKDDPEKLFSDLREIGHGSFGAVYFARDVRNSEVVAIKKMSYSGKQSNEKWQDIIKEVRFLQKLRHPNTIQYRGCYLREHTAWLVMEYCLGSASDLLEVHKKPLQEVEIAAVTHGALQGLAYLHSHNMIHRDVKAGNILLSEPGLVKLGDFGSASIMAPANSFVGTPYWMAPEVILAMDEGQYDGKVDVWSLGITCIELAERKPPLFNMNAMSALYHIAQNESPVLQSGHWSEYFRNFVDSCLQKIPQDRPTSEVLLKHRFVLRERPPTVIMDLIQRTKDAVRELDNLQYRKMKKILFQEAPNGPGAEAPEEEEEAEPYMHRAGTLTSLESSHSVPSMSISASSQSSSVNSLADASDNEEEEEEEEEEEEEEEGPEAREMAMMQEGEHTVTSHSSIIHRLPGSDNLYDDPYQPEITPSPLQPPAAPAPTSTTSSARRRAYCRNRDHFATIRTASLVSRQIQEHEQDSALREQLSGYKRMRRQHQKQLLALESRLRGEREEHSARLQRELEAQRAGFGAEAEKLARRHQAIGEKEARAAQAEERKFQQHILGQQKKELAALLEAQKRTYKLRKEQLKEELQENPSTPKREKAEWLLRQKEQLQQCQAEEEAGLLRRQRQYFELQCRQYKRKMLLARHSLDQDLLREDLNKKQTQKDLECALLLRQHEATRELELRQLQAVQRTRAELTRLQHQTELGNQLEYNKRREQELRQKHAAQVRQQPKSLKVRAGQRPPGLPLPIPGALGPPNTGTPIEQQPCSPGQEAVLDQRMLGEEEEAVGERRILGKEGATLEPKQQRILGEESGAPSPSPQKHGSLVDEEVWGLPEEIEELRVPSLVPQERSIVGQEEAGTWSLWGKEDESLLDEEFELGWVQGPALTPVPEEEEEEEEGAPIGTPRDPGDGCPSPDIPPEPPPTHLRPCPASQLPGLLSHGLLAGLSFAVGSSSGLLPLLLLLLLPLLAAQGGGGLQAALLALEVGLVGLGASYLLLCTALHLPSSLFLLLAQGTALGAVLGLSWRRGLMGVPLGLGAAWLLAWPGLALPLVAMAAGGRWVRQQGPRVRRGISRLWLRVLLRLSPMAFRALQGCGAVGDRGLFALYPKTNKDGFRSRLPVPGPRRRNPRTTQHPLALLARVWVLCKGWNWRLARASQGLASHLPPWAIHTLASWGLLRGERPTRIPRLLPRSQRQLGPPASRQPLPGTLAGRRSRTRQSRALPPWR
NUAK family SNF1-like kinase 1 (Homo sapiens), sequence (O60285 whole entry): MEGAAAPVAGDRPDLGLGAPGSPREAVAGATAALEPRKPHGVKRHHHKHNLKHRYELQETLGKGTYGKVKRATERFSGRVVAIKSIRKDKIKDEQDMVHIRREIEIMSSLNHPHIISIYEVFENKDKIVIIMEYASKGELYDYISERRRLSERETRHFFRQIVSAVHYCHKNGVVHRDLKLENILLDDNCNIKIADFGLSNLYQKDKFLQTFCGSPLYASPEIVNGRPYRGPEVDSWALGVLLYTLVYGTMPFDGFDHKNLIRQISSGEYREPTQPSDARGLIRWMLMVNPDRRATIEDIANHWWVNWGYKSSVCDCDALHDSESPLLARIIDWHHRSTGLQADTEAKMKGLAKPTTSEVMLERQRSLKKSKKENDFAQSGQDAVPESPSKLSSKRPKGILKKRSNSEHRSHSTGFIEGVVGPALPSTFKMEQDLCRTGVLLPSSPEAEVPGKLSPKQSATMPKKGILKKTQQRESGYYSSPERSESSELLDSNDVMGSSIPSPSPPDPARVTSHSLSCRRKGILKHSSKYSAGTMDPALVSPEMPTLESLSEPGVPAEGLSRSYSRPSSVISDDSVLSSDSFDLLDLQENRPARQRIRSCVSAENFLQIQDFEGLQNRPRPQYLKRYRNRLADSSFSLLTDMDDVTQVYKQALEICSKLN

CS(=O)(=O)N1CCCC(NC(=O)[C@H](CCC2CCCCC2)NC(=O)c2ccc(CNc3ncnc4c3nnn4-c3ccccc3)cc2)C1 (stereo not given in full) [SR-301]
inactive: [1] 88% | [2] 97% | [3] 100% | [4] 100% | [5] 97% | [6] 100% | [7] 87% | [8] 94% | [9] 100% | [10] 85% | [11] 100% | [12] 100% | [13] 100% | [14] 100% | [15] 100% | [16] 81% | [17] 95% | [18] 100% | [19] 100% | [20] 89% | [21] 83% | [22] 100% | [23] 100% | [24] 100% | [25] 78% | [26] 100% | [27] 100% | [28] 81% | [29] 92% | [30] 100% | [31] 51% | [32] 100% | [33] 95% | [34] 100% | [35] 81% | [36] 79% | [37] 79% | [38] 70% | [39] 54% | [40] 91% | [41] 100% | [42] 100% | [43] 84% | [44] 93% | [45] 100%

CS(=O)(=O)N1CCCC(NC(=O)[C@H](CCC2CCCCC2)NC(=O)c2ccc(CNC(=O)c3cnc4ccccn34)cc2)C1 (stereo not given in full) [SR-302]
inactive: [1] 80% | [2] 100% | [3] 79% | [4] 88% | [5] 88% | [6] 100% | [7] 100% | [8] 100% | [9] 98% | [10] 100% | [11] 100% | [12] 99% | [13] 66% | [14] 83% | [15] 100% | [16] 91% | [17] 93% | [18] 89% | [19] 100% | [20] 67% | [21] 86% | [22] 100% | [23] 100% | [24] 100% | [25] 55% | [26] 98% | [27] 100% | [28] 100% | [29] 100% | [30] 100% | [31] 68% | [32] 94% | [33] 89% | [34] 82% | [35] 96% | [36] 95% | [37] 82% | [38] 61% | [39] 73% | [40] 100% | [41] 80% | [42] 92% | [43] 100% | [44] 91% | [45] 100%
